Tests used:
mouse TRPM8 (mTRPM8) = mouse TRPM8 (mTRPM8) (Mus musculus, UniProt Q8R4D5); test: whole-cell patch clamp, shift of voltage for half-maximal activation; format: cell-based; details: agonist; 30 µM rapamycin, calcium-free, pH 7.4, 33 °C
rat TRPM8 = rat TRPM8 (Rattus norvegicus, UniProt Q8R455); test: Fura-2 ratiometric calcium imaging, agonist dose-response; format: cell-based
rat TRPM8, sequence (Q8R455 whole entry): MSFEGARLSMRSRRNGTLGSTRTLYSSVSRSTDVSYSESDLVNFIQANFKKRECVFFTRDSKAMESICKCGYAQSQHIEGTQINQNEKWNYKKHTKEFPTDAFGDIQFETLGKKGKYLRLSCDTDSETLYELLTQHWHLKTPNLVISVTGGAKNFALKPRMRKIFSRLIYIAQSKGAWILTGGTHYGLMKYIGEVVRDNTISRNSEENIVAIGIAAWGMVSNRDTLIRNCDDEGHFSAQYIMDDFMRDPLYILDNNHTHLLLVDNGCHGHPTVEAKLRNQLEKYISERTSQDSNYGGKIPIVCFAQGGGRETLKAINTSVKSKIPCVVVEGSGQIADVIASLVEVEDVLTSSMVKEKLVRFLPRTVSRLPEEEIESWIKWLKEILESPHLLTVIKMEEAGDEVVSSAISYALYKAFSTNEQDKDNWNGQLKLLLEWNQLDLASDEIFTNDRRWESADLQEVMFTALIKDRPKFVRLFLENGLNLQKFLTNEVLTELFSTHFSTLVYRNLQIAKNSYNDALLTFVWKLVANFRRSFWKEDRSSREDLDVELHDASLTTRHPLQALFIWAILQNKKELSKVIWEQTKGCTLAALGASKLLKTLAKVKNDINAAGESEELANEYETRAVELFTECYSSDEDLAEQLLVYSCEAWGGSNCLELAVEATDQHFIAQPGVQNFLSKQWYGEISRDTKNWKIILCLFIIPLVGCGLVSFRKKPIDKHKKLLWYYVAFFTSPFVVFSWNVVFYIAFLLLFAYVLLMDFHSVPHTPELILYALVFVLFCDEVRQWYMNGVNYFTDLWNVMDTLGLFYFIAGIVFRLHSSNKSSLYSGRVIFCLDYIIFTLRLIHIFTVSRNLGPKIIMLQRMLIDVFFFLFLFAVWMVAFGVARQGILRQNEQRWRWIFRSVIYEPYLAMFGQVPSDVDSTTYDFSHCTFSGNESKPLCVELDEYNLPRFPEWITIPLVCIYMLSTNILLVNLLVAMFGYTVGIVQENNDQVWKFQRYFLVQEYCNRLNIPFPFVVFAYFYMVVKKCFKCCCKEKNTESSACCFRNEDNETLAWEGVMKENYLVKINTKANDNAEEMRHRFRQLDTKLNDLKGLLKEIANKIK

mouse TRPM8 (mTRPM8), sequence (Q8R4D5 whole entry): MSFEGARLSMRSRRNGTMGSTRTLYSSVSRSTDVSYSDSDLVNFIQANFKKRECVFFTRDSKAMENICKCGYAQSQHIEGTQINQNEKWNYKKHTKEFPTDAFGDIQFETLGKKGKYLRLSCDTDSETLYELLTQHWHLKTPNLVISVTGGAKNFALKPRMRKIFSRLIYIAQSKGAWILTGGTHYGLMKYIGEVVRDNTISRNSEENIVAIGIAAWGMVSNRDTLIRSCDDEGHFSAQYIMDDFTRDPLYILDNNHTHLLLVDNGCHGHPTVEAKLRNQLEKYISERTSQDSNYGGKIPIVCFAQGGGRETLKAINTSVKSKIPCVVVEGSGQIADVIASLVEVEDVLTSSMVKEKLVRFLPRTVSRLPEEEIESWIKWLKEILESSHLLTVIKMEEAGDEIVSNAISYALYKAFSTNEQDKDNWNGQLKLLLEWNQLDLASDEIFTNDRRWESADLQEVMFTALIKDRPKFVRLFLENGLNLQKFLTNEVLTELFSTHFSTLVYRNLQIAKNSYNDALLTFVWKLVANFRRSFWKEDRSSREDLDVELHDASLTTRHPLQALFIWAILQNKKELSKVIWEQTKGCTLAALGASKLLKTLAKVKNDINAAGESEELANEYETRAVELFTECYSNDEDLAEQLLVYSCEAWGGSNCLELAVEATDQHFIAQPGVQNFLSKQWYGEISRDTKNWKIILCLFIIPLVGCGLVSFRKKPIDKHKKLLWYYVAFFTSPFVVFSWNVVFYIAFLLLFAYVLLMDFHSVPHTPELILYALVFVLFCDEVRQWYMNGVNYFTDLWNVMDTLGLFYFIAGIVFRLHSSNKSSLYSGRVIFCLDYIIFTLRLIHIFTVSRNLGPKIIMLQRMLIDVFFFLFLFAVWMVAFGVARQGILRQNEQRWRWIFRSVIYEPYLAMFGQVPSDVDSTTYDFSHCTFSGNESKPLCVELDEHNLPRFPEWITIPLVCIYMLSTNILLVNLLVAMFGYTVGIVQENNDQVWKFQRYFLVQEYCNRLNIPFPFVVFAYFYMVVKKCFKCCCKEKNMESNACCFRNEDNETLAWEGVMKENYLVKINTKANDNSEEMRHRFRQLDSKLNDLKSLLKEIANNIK

`CO[C@H]1C[C@@H]2CC[C@@H](C)[C@@](O)(O2)C(=O)C(=O)N2CCCC[C@H]2C(=O)O[C@H]([C@H](C)C[C@@H]2CC[C@@H](O)[C@H](OC)C2)CC(=O)[C@H](C)/C=C(\C)[C@@H](O)[C@@H](OC)C(=O)[C@H](C)C[C@H](C)/C=C/C=C/C=C/1C` [rapamycin] was tested, and the ΔV1/2 (mouse TRPM8 (mTRPM8)) was −102.1 ± 5.2 mV and the EC50 (rat TRPM8) was 6.5 ± 1.5 µM.

— paper doi:10.1101/2024.01.24.577111v1 (biorxiv, 2024)
